Columns and labels:
EGFR = target: T1, EGFR (Homo sapiens, UniProt P00533); assay: HTRF kinase activity inhibition assay, EGFR; type: biochemical; details: HTRF TK kit
T1 construct: purchased Carna 08-115
Text: (§1) In this assay, the HTRF TK Kit (Catalog No. 62TKOPEC) provided by Cisbio was used to detect the inhibitory activity of compounds on BTK kinase and BTK C481S kinase and the selectivity of compounds relative to EGFR, ITK and TEC kinases.
(§2) Reagents and consumables: BTK kinase (Invitrogen, Catalog No. PV3587), BTK C481S (Carna, Product No. 08-547), ITK (Carna, Product No. 08-181), EGFR (Carna, Product No. 08-115), TEC (Carna, Product No. 08-182), HTRF-TK kit (Cisbio, Product No. 62TKOPEC), MgCl2 (Sigma, Product No. M1028), MnCl2 (Sigma, Product No. M1787), DTT (Sigma, Product No. D0632), ATP (Sigma, Product No. A7699-1 g), DMSO (Sigma, Product No. D2650), 384-well plate (PE, Product No. 6008280).
(§3) The entire operation steps were carried out on ice, and the total reaction volume was 10 μL. The compound (4 μL), substrate and ATP (4 μL), kinase (2 μL) were added in sequence to a 384-well plate, and shaked for 30 seconds. After an appropriate time at room temperature, the detection reagent was added. After 1 hour at room temperature, the plate was detected with a microplate reader. The specific steps were as follows: • a) 1× kinase buffer solution required for kinase detection was calculated according to the amount of the detection compound, and prepared as needed; • b) compounds with 2.5×working concentration were prepared, the 100 times gradient concentration solution of compounds was diluted by 4 μL to the desired concentration, mixed well, and added to each well at 4 μL per well; • c) 5×working concentration of substrate and ATP were prepared, mixed in a ratio of 1:1 before adding to a 384-well plate, and added to each well at 4 μL per well; • d) 5×working concentration of kinase was prepared, and 2 μL was added to each well; • e) the plate was shaked on a microplate oscillator for 30 seconds, sealed with a sealing membrane, and reacted at room temperature for an appropriate time; • f) 4×working concentrations of streptavidin XL-665 and TK antibody-cryptate compound were prepared, mixed in a ratio of 1:1 before adding to a 384-well plate, and added to each well at 10 μL per well; • g) the plate was read after reacting at room temperature for 1 hour; • h) the wells with only substrate, ATP and 1% DMSO added but no kinase were blank control wells, and the wells with only substrate, ATP, 1% DMSO and kinase were positive control wells.
(§4) Readings: The values of 620 nm (cryptate) and 665 nm (XL665) were read with a BioTek Synerg Neo2 microplate reader, the ratio of 665/620 per well was calculated, and the data were exported. Data analysis: IC50 was calculated using GraphPad Prism 7.0 software. The following nonlinear fitting formula was used to obtain the IC50 (half inhibitory concentration) of compounds:
(§5) [formula] • X: Compound concentration log value • Y: Inhibition rate (% inhibition)
(§6) The kinase inhibition rate (% inhibition rate) was calculated as: […]

ITK = target: T2, ITK (Homo sapiens, UniProt Q08881); assay: HTRF kinase activity inhibition assay, ITK; type: biochemical; details: HTRF TK kit
T2 construct: purchased Carna 08-181
T2 sequence (Q08881 1-620): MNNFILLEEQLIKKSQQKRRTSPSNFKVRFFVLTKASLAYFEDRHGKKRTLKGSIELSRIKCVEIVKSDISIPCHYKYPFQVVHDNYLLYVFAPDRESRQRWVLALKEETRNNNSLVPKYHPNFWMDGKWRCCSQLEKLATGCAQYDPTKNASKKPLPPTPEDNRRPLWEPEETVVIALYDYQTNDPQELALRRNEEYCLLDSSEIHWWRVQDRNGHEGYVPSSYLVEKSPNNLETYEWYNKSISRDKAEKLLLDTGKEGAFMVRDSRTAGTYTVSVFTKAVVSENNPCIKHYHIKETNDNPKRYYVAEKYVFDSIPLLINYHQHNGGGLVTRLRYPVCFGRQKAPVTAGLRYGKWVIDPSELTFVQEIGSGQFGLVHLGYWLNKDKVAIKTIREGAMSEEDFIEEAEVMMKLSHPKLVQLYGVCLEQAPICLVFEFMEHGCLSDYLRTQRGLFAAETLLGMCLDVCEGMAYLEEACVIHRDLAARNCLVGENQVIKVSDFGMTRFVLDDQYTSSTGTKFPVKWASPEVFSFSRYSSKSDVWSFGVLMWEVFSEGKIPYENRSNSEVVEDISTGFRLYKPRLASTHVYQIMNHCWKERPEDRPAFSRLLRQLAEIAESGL
Text: as §1, §2, §3, §4, §5, §6

[1] = target: T3, phosphorylated BTK Y223 in NIH/3T3 BTK WT cells (Homo sapiens, UniProt Q06187); assay: Phosphor-BTK(Y223) assay, NIH/3T3 BTK WT cells; type: cell-based; details: phosphorylated BTK Y223, NIH/3T3 BTK WT cells; read-out: NIH/3T3 BTK-WT pBTK IC50
T3 construct: expressed in transfected cells; host or cells: NIH/3T3 (mouse fibroblasts) engineered to express BTK WT
T3 sequence (Q06187 whole entry): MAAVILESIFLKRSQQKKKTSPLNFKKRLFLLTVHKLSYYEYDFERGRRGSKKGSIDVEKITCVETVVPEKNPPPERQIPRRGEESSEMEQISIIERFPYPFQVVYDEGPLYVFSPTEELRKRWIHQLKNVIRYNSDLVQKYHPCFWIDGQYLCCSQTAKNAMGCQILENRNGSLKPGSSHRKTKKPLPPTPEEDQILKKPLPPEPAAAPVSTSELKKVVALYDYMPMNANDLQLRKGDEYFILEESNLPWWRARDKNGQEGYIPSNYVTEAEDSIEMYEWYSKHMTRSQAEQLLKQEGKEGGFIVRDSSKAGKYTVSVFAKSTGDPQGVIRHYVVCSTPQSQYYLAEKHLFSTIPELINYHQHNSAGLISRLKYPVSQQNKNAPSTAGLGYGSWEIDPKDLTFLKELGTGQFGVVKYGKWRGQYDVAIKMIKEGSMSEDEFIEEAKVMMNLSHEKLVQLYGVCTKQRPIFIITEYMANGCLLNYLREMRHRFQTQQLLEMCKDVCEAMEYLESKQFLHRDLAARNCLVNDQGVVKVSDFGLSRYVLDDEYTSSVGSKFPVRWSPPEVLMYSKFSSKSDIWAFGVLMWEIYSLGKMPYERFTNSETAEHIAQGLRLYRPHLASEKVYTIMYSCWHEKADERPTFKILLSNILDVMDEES
Summary of the method: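 NIH/3T3 cells expressing BTK WT (7.5k/well) or C481S (10k/well) were treated with compound for 0.5 h at 37 °C, then 1 mM Na3VO4 was added for 2 h. Lysates were probed overnight at room temperature with HTRF p-BTK(Y223) cryptate/d2 antibodies (665/620 nm ratio). IC50 came from nonlinear fit of % inhibition against log concentration.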

BTK kinase = target: T4, BTK kinase (Homo sapiens, UniProt Q06187); assay: HTRF kinase activity inhibition assay, BTK; type: biochemical; details: HTRF TK kit
T4 construct: purchased Invitrogen PV3587
T4 sequence (Q06187 whole entry): as above
Text: as §1, §2, §3, §4, §5, §6

T1 sequence (P00533 669-1210 limits assumed): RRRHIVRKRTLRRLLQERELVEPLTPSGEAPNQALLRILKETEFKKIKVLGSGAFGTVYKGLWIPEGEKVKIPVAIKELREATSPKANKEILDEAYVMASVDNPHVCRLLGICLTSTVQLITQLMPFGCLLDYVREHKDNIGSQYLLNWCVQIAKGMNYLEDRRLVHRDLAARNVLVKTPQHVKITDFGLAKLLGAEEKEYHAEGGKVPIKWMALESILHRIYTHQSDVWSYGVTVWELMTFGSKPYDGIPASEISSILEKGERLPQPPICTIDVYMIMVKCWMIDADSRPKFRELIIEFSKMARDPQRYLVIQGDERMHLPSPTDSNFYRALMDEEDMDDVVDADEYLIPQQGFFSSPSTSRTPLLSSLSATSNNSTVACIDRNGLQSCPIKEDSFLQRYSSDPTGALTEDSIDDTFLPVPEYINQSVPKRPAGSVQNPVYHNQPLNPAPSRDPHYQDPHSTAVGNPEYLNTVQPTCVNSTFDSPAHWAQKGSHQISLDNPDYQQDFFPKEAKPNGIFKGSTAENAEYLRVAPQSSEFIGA

| SMILES | IC50 (EGFR) [nM] | IC50 (ITK) [nM] | IC50 [1] [nM] | IC50 (BTK kinase) [nM] |
| --- | --- | --- | --- | --- |
| COc1ccc(F)cc1C(=O)NCc1ccc(-c2nn(C3CCCC(O)C3)c3ncnc(N)c23)cc1 (single isomer, unassigned) [Example 7] | 100 to 1000 | > 10000 | ≤ 25 | – |
| COc1ccc(F)cc1C(=O)NCc1ccc(-c2nc(C3CCCC(O)C3)n3ccnc(N)c23)cc1 (stereo not shown) [Example 20, N-(4-(8-amino-3-(3-hydroxycyclohexanyl)imidazo[1,5-a]pyrazin-1-yl)benzyl)-5-fluoro-2-methoxybenzamide] | 10 to 50 | > 10000 | ≤ 25 | ≤ 10 |
| COc1ccc(F)cc1C(=O)NCc1ccc(-c2nn(C3CCCC(O)C3)c3ncnc(N)c23)cc1 (single isomer, unassigned) [Example 5] | 50 to 100 | > 10000 | ≤ 25 | 10 to 50 |
| COc1ccc(F)cc1C(=O)NCc1ccc(-c2nn(C3CCCC(O)C3)c3ncnc(N)c23)cc1 (single isomer, unassigned) [Example 8] | 100 to 1000 | > 10000 | ≤ 25 | – |
| COc1ccc(F)cc1C(=O)NCc1ccc(-c2nn(C3CCCC(O)C3)c3ncnc(N)c23)cc1 (single isomer, unassigned) [Example 6] | 50 to 100 | > 10000 | ≤ 25 | ≤ 10 |
| COc1ccc(F)cc1C(=O)NCc1ccc(-c2nn(C3CCC(CO)OC3)c3ncnc(N)c23)cc1 (single isomer, unassigned) [Example 18, N-(4-(4-amino-1-(6-(hydroxymethyl)tetrahydro-2H-pyran-3-yl)-1H-pyrazolo[3,4-d]pyrimidin-3-yl)benzyl)-5-fluoro-2-methoxybenzamide] | 50 to 100 | > 10000 | ≤ 25 | ≤ 10 |
| COc1ccc(F)cc1C(=O)NCc1ccc(-c2nn(C3CCC(O)CC3)c3ncnc(N)c23)cc1 [Example 29, N-(4-(4-amino-1-((1R,4R)-4-hydroxycyclohexyl)-1H-pyrazolo[3,4-d]pyrimidin-3-yl)benzyl)-5-fluoro-2-methoxybenzamide] | 50 to 100 | > 10000 | ≤ 25 | ≤ 10 |
| COc1ccc(F)cc1C(=O)NCc1ccc(-c2nc(C3CCCC(O)C3)n3ccnc(N)c23)cc1 (single isomer, unassigned) [Example 22, N-(4-(8-amino-3-(3-hydroxycyclohexanyl)imidazo[1,5-a]pyrazin-1-yl)benzyl)-5-fluoro-2-methoxybenzamide] | 10 to 50 | > 10000 | ≤ 25 | ≤ 10 |
| COc1ccc(F)cc1C(=O)NCc1ccc(-c2nn(C3CCCC(O)C3)c3ncnc(N)c23)cc1 (stereo not shown) [Example 4] | 100 to 1000 | > 10000 | ≤ 25 | ≤ 10 |

Now from value to compound:

| IC50 (EGFR) [nM] | IC50 (ITK) [nM] | IC50 [1] [nM] | IC50 (BTK kinase) [nM] | SMILES |
| --- | --- | --- | --- | --- |
| ≤ 10 | > 10000 | ≤ 25 | ≤ 10 | COc1ccc(F)cc1C(=O)NCc1ccc(-c2cc(C3CCC(CO)OC3)n3ncnc(N)c23)cc1 (single isomer, unassigned) [Example 60, N-(4-(4-amino-7-(6-(hydroxymethyl)tetrahydro-2H-pyran-3-yl)pyrrolo[2,1-f][1,2,4]triazin-5-yl)benzyl)-5-fluoro-2-methoxybenzamide] |
| 10 to 50 | > 10000 | ≤ 25 | ≤ 10 | COc1ccc(F)cc1C(=O)NCc1ccc(-c2nn([C@H]3CC[C@H](CO)CC3)c3ncnc(N)c23)cc1 [Example 56, trans-N-(4-(4-amino-1-((1R,4R)-4-(hydroxymethyl)cyclohexyl)-1H-pyrazolo[3,4-d]pyrimidin-3-yl)benzyl)-5-fluoro-2-methoxybenzamide] |
| 50 to 100 | > 10000 | ≤ 25 | ≤ 10 | COc1ccc(F)cc1C(=O)NCc1ccc(-c2nn([C@H]3CC[C@@H](O)CC3)c3ncnc(N)c23)cc1 [Example 30, N-(4-(4-amino-1-((1S,4S)-4-hydroxycyclohexyl)-1H-pyrazolo[3,4-d]pyrimidin-3-yl)benzyl)-5-fluoro-2-methoxybenzamide] |
| 10 to 50 | > 10000 | ≤ 25 | ≤ 10 | COc1ccc(F)cc1C(=O)NCc1ccc(-c2nn([C@H]3CC[C@@H](CO)CC3)c3ncnc(N)c23)cc1 [Example 55, cis-N-(4-(4-amino-1-((1S,4S)-4-(hydroxymethyl)cyclohexyl)-1H-pyrazolo[3,4-d]pyrimidin-3-yl)benzyl)-5-fluoro-2-methoxybenzamide] |
| 100 to 1000 | > 10000 | ≤ 25 | ≤ 10 | COc1ccc(F)cc1C(=O)NCc1ccc(-c2nn(C3CCC(O)C3)c3ncnc(N)c23)cc1 (single isomer, unassigned) [Example 31, N-(4-(4-amino-1-(3-hydroxycyclopentanyl)-1H-pyrazolo[3,4-d]pyrimidin-3-yl)benzyl)-5-fluoro-2-methoxybenzamide] |
| 10 to 50 | > 10000 | 25 to 50 | 10 to 50 | COc1ccc(F)cc1C(=O)NCc1ccc(-c2cc(C3CCC(CO)OC3)n3ncnc(N)c23)cc1 (single isomer, unassigned) [Example 59, N-(4-(4-amino-7-(6-(hydroxymethyl)tetrahydro-2H-pyran-3-yl)pyrrolo[2,1-f][1,2,4]triazin-5-yl)benzyl)-5-fluoro-2-methoxybenzamide] |

— patent US20250179027A1, “CYCLOALKYL OR HETEROCYCLYL SUBSTITUTED HETEROARYL COMPOUND, AND COMPOSITION AND USE THEREOF” (Shenzhen TargetRx, Inc., priority 2022, published 2025)
